One assay has as its system Enterococcus faecalis. Put plainly: Minimum inhibitory concentration against Enterococcus faecalis ATCC 29212. It counts as functional.
In assay [1] the test system is Staphylococcus aureus. Put plainly: Minimum inhibitory concentration against Staphylococcus aureus ATCC 25923. It counts as functional.
The nature of assay [2]: Minimum inhibitory concentration against […] ATCC 13813. It counts as functional. As to conditions: Streptococcus agalactiae.
For assay [3], the system named is Staphylococcus aureus. Put plainly: Antibacterial activity against Staphylococcus aureus was evaluated in infected mice. In kind it is functional.
The subject of another assay is Streptococcus pyogenes. Briefly: Minimum inhibitory concentration against Streptococcus pyogenes ATCC 8668.

Converted amounts (≈) assume the structure as drawn.

As a reminder, the MIC is the lowest concentration found to suppress growth. Read a high MIC as a need for much substance. As usually defined, the ED50 is the midpoint of the dose-response relation. A lower ED50 goes with an effect at a small dose.

Take `CSC(=S)NC[C@H]1CN(c2ccc(N3CCN(c4ccccn4)CC3)c(F)c2)C(=O)O1`: the MIC is 0.12 µg/mL (≈ 0.26 µM) in the assay on Enterococcus faecalis, 0.06 µg/mL (≈ 0.13 µM) against Staphylococcus aureus [1] and 0.25 µg/mL (≈ 0.542 µM) in assay [2]. This compound displayed an ED50 with Staphylococcus aureus [3] greater than 16 mg/kg.

Turning to `NC(=S)NC[C@H]1CN(c2ccc(N3CCN(c4ccccn4)CC3)c(F)c2)C(=O)O1`, the MIC against Enterococcus faecalis was 0.25 µg/mL (≈ 0.581 µM); with Staphylococcus aureus [1], 0.12 µg/mL (≈ 0.279 µM); in assay [2], 0.12 µg/mL (≈ 0.279 µM).

With `CC(=S)NC[C@H]1CN(c2ccc(N3CCN(c4cccc(F)c4)CC3)c(F)c2)C(=O)O1`, the MIC in the assay on Enterococcus faecalis was 0.03 µg/mL (≈ 0.0672 µM); against Staphylococcus aureus [1] it was 0.12 µg/mL (≈ 0.269 µM); in assay [2] it was 0.12 µg/mL (≈ 0.269 µM).

For `O=C1O[C@@H](COc2ccccn2)CN1c1ccc(N2CCN(c3ccccc3Cl)CC2)c(F)c1`, the MIC (in the assay with Enterococcus faecalis; in the assay with Staphylococcus aureus [1]; in assay [2]; in the assay with Streptococcus pyogenes) was greater than 64 µg/mL throughout.

As to `COC(=S)NC[C@H]1CN(c2ccc(N3CCN(c4ccccc4)CC3)c(F)c2)C(=O)O1`, the figures for the MIC (with Enterococcus faecalis; against Staphylococcus aureus [1]; in assay [2]) were 0.25 µg/mL (≈ 0.562 µM), 0.25 µg/mL (≈ 0.562 µM) and 0.12 µg/mL (≈ 0.27 µM), respectively.

For the compound `CC(=S)NC[C@H]1CN(c2ccc(N3CCN(c4ccccc4C)CC3)c(F)c2)C(=O)O1`, the MIC with Enterococcus faecalis came to 0.05 µg/mL (≈ 0.113 µM); in the assay with Staphylococcus aureus [1] it was 0.12 µg/mL (≈ 0.271 µM); in assay [2], 0.12 µg/mL (≈ 0.271 µM).

Regarding `COc1cccc(N2CCN(c3ccc(N4C[C@H](CNC(N)=S)OC4=O)cc3F)CC2)c1`, the values for the MIC (against Enterococcus faecalis; with Staphylococcus aureus [1]; in assay [2]) were 0.06 µg/mL (≈ 0.131 µM), 0.03 µg/mL (≈ 0.0653 µM) and 0.06 µg/mL (≈ 0.131 µM), respectively.

Consider `COC(=S)NC[C@H]1CN(c2ccc(N3CCN(c4ccccn4)CC3)c(F)c2)C(=O)O1`, for which the results for the MIC (against Enterococcus faecalis; against Staphylococcus aureus [1]; in assay [2]) were 0.12 µg/mL (≈ 0.269 µM), 0.12 µg/mL (≈ 0.269 µM) and 0.06 µg/mL (≈ 0.135 µM), respectively. Besides, the ED50 in the assay with Staphylococcus aureus [3] was greater than 16 mg/kg.

On to `CSC(=S)NC[C@H]1CN(c2ccc(N3CCN(c4ccccc4C)CC3)c(F)c2)C(=O)O1`, for which the MIC (against Enterococcus faecalis; in the assay on Staphylococcus aureus [1]; in assay [2]) was 0.12 µg/mL (≈ 0.253 µM) in each case.

In the case of `CC(=S)NC[C@H]1CN(c2ccc(N3CCN(c4cccc(Cl)c4)CC3)c(F)c2)C(=O)O1`, the MIC in the assay on Enterococcus faecalis was determined as 0.06 µg/mL (≈ 0.13 µM); with Staphylococcus aureus [1], 0.03 µg/mL (≈ 0.0648 µM); in assay [2], 0.03 µg/mL (≈ 0.0648 µM). In the assay on Staphylococcus aureus [3], this compound came in with an ED50 greater than 16 mg/kg.

Turning to `COc1cccc(N2CCN(c3ccc(N4C[C@H](CNC(=S)SC)OC4=O)cc3)CC2)c1`, the MIC against Enterococcus faecalis was found to be 0.12 µg/mL (≈ 0.254 µM); against Staphylococcus aureus [1], 0.12 µg/mL (≈ 0.254 µM); in assay [2] it was 0.25 µg/mL (≈ 0.529 µM).

Turning to `CC(=S)NC[C@H]1CN(c2ccc(N3CCN(c4ccccc4Cl)CC3)c(F)c2)C(=O)O1`, the figures for the MIC (against Enterococcus faecalis; in the assay on Staphylococcus aureus [1]; in assay [2]) were greater than 64 µg/mL, 0.12 µg/mL (≈ 0.259 µM) and 0.12 µg/mL (≈ 0.259 µM), respectively.

On to `NC(=S)NC[C@H]1CN(c2ccc(N3CCN(c4ccccc4)CC3)cc2)C(=O)O1`, for which the MIC against Enterococcus faecalis was 0.12 µg/mL (≈ 0.292 µM); in the assay with Staphylococcus aureus [1], 0.12 µg/mL (≈ 0.292 µM); in assay [2], 0.25 µg/mL (≈ 0.607 µM).

With `COc1ccccc1N1CCN(c2ccc(N3C[C@H](CNC(N)=S)OC3=O)cc2F)CC1`, the MIC (against Enterococcus faecalis; in the assay with Staphylococcus aureus [1]; in assay [2]) was 0.25 µg/mL (≈ 0.544 µM) each time.

In the case of `NC(=S)NC[C@H]1CN(c2ccc(N3CCN(c4ccccc4Cl)CC3)cc2)C(=O)O1`, the minimal inhibitory concentration (MIC) against Enterococcus faecalis worked out at 0.06 µg/mL (≈ 0.135 µM); against Staphylococcus aureus [1], 0.03 µg/mL (≈ 0.0673 µM); in assay [2], 0.06 µg/mL (≈ 0.135 µM).

For the compound `NC(=S)NC[C@H]1CN(c2ccc(N3CCN(c4ccccc4Cl)CC3)c(F)c2)C(=O)O1`, the MIC in the assay on Enterococcus faecalis is 0.25 µg/mL (≈ 0.539 µM); with Staphylococcus aureus [1], 0.12 µg/mL (≈ 0.259 µM); in assay [2] it was 0.12 µg/mL (≈ 0.259 µM).

Take `O=C1O[C@@H](COC2CNCCN2)CN1c1ccc(N2CCN(c3ccccc3Cl)CC2)c(F)c1` (stereo partly drawn): the MIC (against Enterococcus faecalis; against Staphylococcus aureus [1]; in assay [2]; with Streptococcus pyogenes) was greater than 64 µg/mL throughout.

Consider `CC(=S)NC[C@H]1CN(c2ccc(N3CCN(c4ccc(Cl)cc4)CC3)c(F)c2)C(=O)O1`, for which the results for the MIC (with Enterococcus faecalis; in the assay on Staphylococcus aureus [1]; in assay [2]) were 0.25 µg/mL (≈ 0.54 µM), 0.12 µg/mL (≈ 0.259 µM) and 0.25 µg/mL (≈ 0.54 µM), respectively.

Consider `NC(=S)NC[C@H]1CN(c2ccc(N3CCN(c4cccc(C(F)(F)F)c4)CC3)c(F)c2)C(=O)O1`, for which the MIC in the assay with Enterococcus faecalis amounted to 0.25 µg/mL (≈ 0.502 µM); in the assay with Staphylococcus aureus [1] it was 0.25 µg/mL (≈ 0.502 µM); in assay [2], 0.12 µg/mL (≈ 0.241 µM).

As to `COC(=S)NC[C@H]1CN(c2ccc(N3CCN(c4cccc(Cl)c4)CC3)c(F)c2)C(=O)O1`, the MIC (against Enterococcus faecalis; in the assay on Staphylococcus aureus [1]; in assay [2]) was 0.12 µg/mL (≈ 0.251 µM) in each case.

For `NC(=S)NC[C@H]1CN(c2ccc(N3CCN(c4ccc(Cl)cc4)CC3)c(F)c2)C(=O)O1`, the values for the MIC (with Enterococcus faecalis; against Staphylococcus aureus [1]; in assay [2]) were 0.5 µg/mL (≈ 1.08 µM), 0.12 µg/mL (≈ 0.259 µM) and 0.12 µg/mL (≈ 0.259 µM), respectively.

As to `Cc1ccccc1N1CCN(c2ccc(N3C[C@H](CNC(N)=S)OC3=O)cc2F)CC1`, the MIC against Enterococcus faecalis was determined as 0.25 µg/mL (≈ 0.564 µM); with Staphylococcus aureus [1] it was 0.12 µg/mL (≈ 0.271 µM); in assay [2] it was 0.12 µg/mL (≈ 0.271 µM).

Take `NC(=S)NC[C@H]1CN(c2ccc(N3CCN(c4ccccc4)CC3)c(F)c2)C(=O)O1`: the MIC in the assay with Enterococcus faecalis came out at 0.12 µg/mL (≈ 0.279 µM); against Staphylococcus aureus [1] it was 0.06 µg/mL (≈ 0.14 µM); in assay [2], 0.06 µg/mL (≈ 0.14 µM).

As for `CSC(=S)NC[C@H]1CN(c2ccc(N3CCN(c4cccc(Cl)c4)CC3)c(F)c2)C(=O)O1`, the results for the MIC (in the assay on Enterococcus faecalis; with Staphylococcus aureus [1]; in assay [2]) were 0.5 µg/mL (≈ 1.01 µM), 0.12 µg/mL (≈ 0.242 µM) and 1 µg/mL (≈ 2.02 µM), respectively.

As for `O=C1O[C@@H](CO[n+]2ccco2)CN1c1ccc(N2CCN(c3ccccc3Cl)CC2)c(F)c1`, the MIC (in the assay with Enterococcus faecalis; in the assay on Staphylococcus aureus [1]; in assay [2]; against Streptococcus pyogenes) was greater than 64 µg/mL throughout.

With `CC(=S)NC[C@H]1CN(c2ccc(N3CCN(c4ccccc4)CC3)c(F)c2)C(=O)O1`, the figures for the MIC (in the assay with Enterococcus faecalis; against Staphylococcus aureus [1]; in assay [2]) were 0.25 µg/mL (≈ 0.583 µM), 0.12 µg/mL (≈ 0.28 µM) and 0.12 µg/mL (≈ 0.28 µM), respectively.

Take `NC(=S)NC[C@H]1CN(c2ccc(N3CCN(c4cccc(Cl)c4)CC3)c(F)c2)C(=O)O1`: the minimum inhibitory concentration (MIC) in the assay on Enterococcus faecalis worked out at 0.06 µg/mL (≈ 0.129 µM); against Staphylococcus aureus [1] it was 0.02 µg/mL (≈ 0.0431 µM); in assay [2], 0.008 µg/mL (≈ 0.0172 µM). In addition, the ED50 with Staphylococcus aureus [3] is greater than 16 mg/kg.

Take `COC(=S)NC[C@H]1CN(c2ccc(N3CCN(c4cccc(OC)c4)CC3)c(F)c2)C(=O)O1`: the MIC (against Enterococcus faecalis; with Staphylococcus aureus [1]; in assay [2]) was 0.12 µg/mL (≈ 0.253 µM) each time.

On to `CC(=S)NC[C@H]1CN(c2ccc(N3CCN(c4ccccn4)CC3)c(F)c2)C(=O)O1`, for which the values for the MIC (in the assay on Enterococcus faecalis; against Staphylococcus aureus [1]; in assay [2]) were 0.25 µg/mL (≈ 0.582 µM), 0.06 µg/mL (≈ 0.14 µM) and 0.12 µg/mL (≈ 0.279 µM), respectively.

In the case of `CC(=O)NC[C@H]1CN(c2ccc(N3CCOCC3)c(F)c2)C(=O)O1` [LINEZOLID], the MIC is 0.25 µg/mL (≈ 0.741 µM) against Staphylococcus aureus [1], 0.5 µg/mL (≈ 1.48 µM) in assay [2] and 0.5 µg/mL (≈ 1.48 µM) against Streptococcus pyogenes. It took a dose of 4 mg/kg to reach the 50% effect level in the assay with Staphylococcus aureus [3] (ED50).

The values above are taken from ChEMBL document CHEMBL1137023, “Synthesis and antibacterial activity of arylpiperazinyl oxazolidinones with diversification of the N-substituents” (2004).
